# BindingDB's records for patent US10155765 (Merck Sharp & Dohme, 2018)
# pIC50: −log10 of the molar value.
# Target: T1, Interleukin-1 receptor-associated kinase 4 (Homo sapiens, UniProt Q9NWZ3)
# T1 sequence (Q9NWZ3 whole entry): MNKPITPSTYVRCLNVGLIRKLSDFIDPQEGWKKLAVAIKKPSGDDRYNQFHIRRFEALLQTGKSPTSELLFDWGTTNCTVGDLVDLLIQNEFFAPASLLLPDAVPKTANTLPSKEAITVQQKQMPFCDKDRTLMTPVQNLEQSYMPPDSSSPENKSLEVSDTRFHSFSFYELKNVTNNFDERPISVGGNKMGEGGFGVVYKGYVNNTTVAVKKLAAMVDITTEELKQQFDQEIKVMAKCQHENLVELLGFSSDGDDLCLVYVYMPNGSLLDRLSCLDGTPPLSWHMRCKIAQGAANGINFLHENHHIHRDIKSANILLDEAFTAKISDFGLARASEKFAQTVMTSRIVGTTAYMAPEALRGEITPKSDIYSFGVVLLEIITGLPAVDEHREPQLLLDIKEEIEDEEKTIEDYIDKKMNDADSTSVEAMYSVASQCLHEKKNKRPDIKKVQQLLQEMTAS
# Assay: IRAK4 Kinase Assay
# Protocol: The kinase activity of IRAK4 is determined by its ability to catalyze the phosphorylation of a fluorescent polypeptide substrate. The extent of phosphorylation is measured using the IMAP technology (Molecular Devices) where the phosphorylated fluorescent substrate binds to the large M(III)-based nanoparticles which reduces the rotational speed of the substrate and thus increases its fluorescent polarization (FP).20 μL reaction mixture contains 10 mM TriHCl, pH 7.2, 0.5 nM GST tagged IRAK4 (SignalChem), 100 nM fluorescent peptide substrate (RP7030, Molecular Devices), 100 μM ATP, 1 mM DDT, 1 mM MgCl2, and 0.01% Tween 20. The reaction is initiated by the addition of ATP. After incubation for 30 minutes at 25° C., 60 μL of Progressive IMAP Reagent (Molecular Devices) is added to stop the reaction. Change in RP7030's FP is determined by a FP reader (Analyst HT, LJL BioSystems).
row,Structure (SMILES),pIC50
1,"CSc1ncc2ccc(C(=O)Nc3cn(C)nc3C(N)=O)n2n1 [US10155765, Example 57]",6.43
2,"NC(=O)c1c(NC(=O)c2cnn3ccc(N4CCNCC4)nc23)cnn1-c1ccncc1 [US10155765, Example 35]",6.51
